Laboratory results: publication PMC12057046, “Elucidation of short linear motif-based interactions of the MIT and rhodanese domains of the ubiquitin-specific protease 8” (Biology Direct, 2025)

Biological target: T1, USP8 Rhod domain (Homo sapiens, UniProt P40818)
T1 construct: USP8 Rhod (174–317) (UniProt: P40818); GST (cleaved yes); made in house; host or cells: Escherichia coli BL21-Gold (DE3)
T1 sequence (P40818 174-317): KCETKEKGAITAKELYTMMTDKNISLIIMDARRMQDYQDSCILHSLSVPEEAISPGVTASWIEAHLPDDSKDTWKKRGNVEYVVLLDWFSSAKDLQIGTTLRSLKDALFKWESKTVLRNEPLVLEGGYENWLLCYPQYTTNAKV
Assay: Peptide-phage display-based deep mutational scanning (DMS), USP8 Rhod domain
Type: binding
Settings: for hit_pair_ratio: bait USP8_Rhodanese__P40818_174_317; for enrichment_relative_to_wt at position 7 (wt G) / proportion of amino acid at position 7 (wt G): PSSM, library USP8_DMS, days 2,3
Procedure: Four rounds of phage selections were carried out using the second generation human disorderome library or the constructed deep mutational scanning library. At least three individual replicates were used for each bait protein. 10 µg of GST-tagged proteins or GST control (diluted in PBS from the stock of proteins kept in the purification elution buffer) were immobilized in 100 µL PBS on a 96-well MaxiSorp (Nunc) plate overnight at 4 °C. The plates were incubated with blocking buffer (with 0.5% BSA in PBS) for 1 h at 4 °C followed by washing with 0.05% Tween 20 in PBS four times. The naïve phage library (10^11 CFU) was diluted in 1/5th volume PEG/NaCl (20% PEG-8000, 0.4 M NaCl) and 1X PBS, incubated on ice for 10 min and centrifuged at 10,000 [drawing 3] g for 10 min. The pellet was resuspended in the volume of PBS (100 µL/ well). The GST-coated control plate was incubated with 100 µL library per well in PBS for 1 h at 4 °C to remove non-specific binders. The supernatant was transferred to the target wells and incubated for 2 h at 4 °C. The wells were washed five times with 0.05% Tween 20 in PBS and the bound phages were eluted with 100 µL per well log-phase E. coli OmniMAX by incubating at 37° C while shaking. After 30 min, M13KO7 helper phages were added and incubated for an additional 45 min. The bacterial cultures were transferred to 1 mL 2YT supplemented with 100 µg/mL carbenicillin, 30 µg/mL kanamycin and 0.3 mM IPTG and grew overnight at 37 °C while shaking. The following day the cultures were centrifuged for 10 min at 2,000 [drawing 4] g, 4 °C. 1/10th volume of 10 [drawing 5] PBS was added to adjust the pH and heated at 65 °C for 10 min. The phage pools from each round were used as in-phages for the next round of selections.
The samples were prepared for NGS as previously described. […] The PCR products were normalized with 25 µL Mag-bind Total Pure NGS beads (Omega Biotek) and 10 µL of each eluted sample (Qiagen Elution Buffer) was pooled and cleaned-up with a PCR purification kit (Qiagen). The PCR product was confirmed by 2% agarose electrophoresis and the band was extracted with QIAquick Gel extraction Kit (Qiagen) and eluted with 30 µL TE buffer. The dsDNA was quantified using QuantiT PicoGreen dsDNA Assay Kit (Thermo Fisher) and sent for NGS (Illumina MiSeq v3, 1 × 150 bp read setup, 20% PhiX, NGI SciLifeLab facility, Sweden). The NGS data were demultiplexed, adapter regions were trimmed and sequences with an average quality of at least 20 were translated to peptide sequences. The NGS data were analysed using custom Python scripts. The total read NGS counts for each selection experiment of each peptide sequence were compiled and annotated in PepTools (https://slim.icr.ac.uk/tools/peptools/). Since ProP-PD is in essence a competition assay, the possibility of the input phage library influencing the selection outcome was explored. […] Pearson correlation coefficient and p-value were calculated using Python’s SciPy library.

[1] = ProP-PD DMS, pair wild-type GMERVLGGLSSPLRLL (wt_00013) vs mutant, positive where wild-type fraction is higher, negative where mutant fraction is higher
[2] = ProP-PD pairs, wild-type/mutant pair, wild type KIAA1614 569-584 GMERVLGGLSSPLRLL (wt_00013)
[3] = wild type/mutant pair, vs hit_library_peptide_wt GLALWEAKMKQLAERA, negative where mutant fraction exceeds wild type, ProP-PD pairs (sheet S7.B)

hit_pair_ratio [1] | hit_pair_ratio [2] | Substance | further results
65.83 | – | GMERVLGGLSSPFRLL | –
32.20 | – | GMERVLGGLSSPGRLL | –
80.49 | – | GMERVLGGLSSPHRLL | –
321.97 | – | GMERVLGGLSSPKRLL | –
-3.54 | – | GMERVLGGLSSPLALL | –
107.32 | – | GMERVLGGLSSPLELL | –
1.48 | – | GMERVLGGLSSPLFLL | –
107.32 | – | GMERVLGGLSSPLGLL | –
5.88 | – | GMERVLGGLSSPLHLL | –
-3.18 | – | GMERVLGGLSSPLILL | –
5.73 | – | GMERVLGGLSSPLKLL | –
2.57 | – | GMERVLGGLSSPLLLL | –
-10.76 | – | GMERVLGGLSSPLMLL | –
38.62 | – | GMERVLGGLSSPLNLL | –
59.13 | – | GMERVLGGLSSPLQLL | –
160.99 | – | GMERVLGGLSSPLRAL | –
160.99 | – | GMERVLGGLSSPLRGL | –
321.97 | – | GMERVLGGLSSPLRIL | –
131.67 | – | GMERVLGGLSSPLRLA | –
80.49 | – | GMERVLGGLSSPLRLF | –
321.97 | – | GMERVLGGLSSPLRLG | –
8.26 | – | GMERVLGGLSSPLRLH | –
4.34 | – | GMERVLGGLSSPLRLI | –
-1.86 | – | GMERVLGGLSSPLRLM | –
321.97 | – | GMERVLGGLSSPLRLN | –

hit_pair_ratio [1] | hit_pair_ratio [2] | Substance | further results
160.99 | – | GMERVLGGLSSPLRLP | –
26.83 | – | GMERVLGGLSSPLRLQ | –
131.67 | – | GMERVLGGLSSPLRLT | –
40.25 | – | GMERVLGGLSSPLRLV | –
160.99 | – | GMERVLGGLSSPLRNL | –
160.99 | – | GMERVLGGLSSPLRVL | –
-1.20 | – | GMERVLGGLSSPLSLL | –
1.50 | – | GMERVLGGLSSPLTLL | –
-21.41 | – | GMERVLGGLSSPLVLL | –
-1.66 | – | GMERVLGGLSSPLWLL | –
5.39 | – | GMERVLGGLSSPLYLL | –
7.90 | – | GMERVLGGLSSPMRLL | –
321.97 | – | GMERVLGGLSSPNRLL | –
160.99 | – | GMERVLGGLSSPPRLL | –
160.99 | – | GMERVLGGLSSPRRLL | –
1.14 | – | GMERVLGGLSSPSRLL | –
1.41 | – | GMERVLGGLSSPTRLL | –
5.59 | – | GMERVLGGLSSPVRLL | –
2.81 | – | GMERVLGGLSSPWRLL | –
16.65 | – | GMERVLGGLSSPYRLL | –
321.97 | – | GMERVLGGLSSQLRLL | –
160.99 | – | GMERVLGGLSSRLRLL | –
8.62 | – | GMERVLGGLSSSLRLL | –
131.67 | – | GMERVLGGLSSTLRLL | –
2.98 | – | GMERVLGGLSTPLRLL | –

hit_pair_ratio [1] | hit_pair_ratio [2] | Substance | further results
93.45 | – | GMERVLGGLSVPLRLL | –
321.97 | – | GMERVLGGLSYPLRLL | –
321.97 | – | GMERVLGGLVSPLRLL | –
21.15 | – | GMERVLGGMSSPLRLL | –
– | 1.15 | GMERVLGGNSSPLRLL | –
– | 2.15 | GMERVLGGPSSPLRLL | –
– | -8.29 | GMERVLGGQSSPLRLL | –
160.99 | – | GMERVLGGRSSPLRLL | –
– | 2.67 | GMERVLGGSSSPLRLL | –
– | -7.40 | GMERVLGGTSSPLRLL | –
– | -2.88 | GMERVLGGVSSPLRLL | –
10.09 | – | GMERVLGGWSSPLRLL | –
32.92 | – | GMERVLGGYSSPLRLL | –
– | 160.99 | GMERVLGNLSSPLRLL | –
– | 321.97 | GMERVLGTLSSPLRLL | –
– | 14.78 | GMERVLGVLSSPLRLL | –
– | 6.31 | GMERVLHGLSSPLRLL | –
– | 3.89 | GMERVLIGLSSPLRLL | –
– | 131.67 | GMERVLKGLSSPLRLL | –
– | 3.42 | GMERVLLGLSSPLRLL | –
– | -3.47 | GMERVLMGLSSPLRLL | –
– | -1.21 | GMERVLNGLSSPLRLL | –
– | 131.67 | GMERVLPGLSSPLRLL | –
– | -3.38 | GMERVLQGLSSPLRLL | –
– | 18.46 | GMERVLRGLSSPLRLL | –

hit_pair_ratio [1] | hit_pair_ratio [2] | Substance | further results
– | 2.55 | GMERVLSGLSSPLRLL | –
– | -43.42 | GMERVLTGLSSPLRLL | –
– | -3.34 | GMERVLVGLSSPLRLL | –
– | 321.97 | GMERVLWGLSSPLRLL | –
– | 2.20 | GMERVLYGLSSPLRLL | –
– | 321.97 | GMERVNGGLSSPLRLL | –
– | 12.38 | GMERVPGGLSSPLRLL | –
– | 107.32 | GMERVQGGLSSPLRLL | –
– | 321.97 | GMERVSGGLSSPLRLL | –
– | 40.25 | GMERVTGGLSSPLRLL | –
– | 321.97 | GMERVVGGLSSPLRLL | –
– | -5.43 | GMERWLGGLSSPLRLL | –
– | -2.09 | GMERYLGGLSSPLRLL | –
– | 321.97 | GMETVLGGLSSPLRLL | –
– | 40.25 | GMEWVLGGLSSPLRLL | –
– | 321.97 | GMFRVLGGLSSPLRLL | –
– | 16.95 | GMHRVLGGLSSPLRLL | –
– | 32.20 | GMLRVLGGLSSPLRLL | –
– | 2.27 | GMNRVLGGLSSPLRLL | –
– | 21.46 | GMPRVLGGLSSPLRLL | –
– | 1.88 | GMQRVLGGLSSPLRLL | –
– | 9.14 | GMSRVLGGLSSPLRLL | –
– | 23.00 | GMTRVLGGLSSPLRLL | –
– | 160.99 | GMVRVLGGLSSPLRLL | –
– | 15.33 | GMWRVLGGLSSPLRLL | –

hit_pair_ratio [1] | hit_pair_ratio [2] | Substance | further results
– | 17.24 | GMYRVLGGLSSPLRLL | –
– | -3.41 | GNERVLGGLSSPLRLL | –
– | – | GPALWEAKMKQLAERA | hit_pair_ratio [3]: 1107.01
– | -9.75 | GPERVLGGLSSPLRLL | –
– | -1.16 | GQERVLGGLSSPLRLL | –
– | – | GRALWEAKMKQLAERA | hit_pair_ratio [3]: 1107.01
– | 1.40 | GRERVLGGLSSPLRLL | –
– | – | GSALWEAKMKQLAERA | hit_pair_ratio [3]: 417.62
– | -3.84 | GSERVLGGLSSPLRLL | –
– | – | GTALWEAKMKQLAERA | hit_pair_ratio [3]: 1107.01
– | -5.86 | GTERVLGGLSSPLRLL | –
– | – | GVALWEAKMKQLAERA | hit_pair_ratio [3]: -1.59
– | -8.18 | GVERVLGGLSSPLRLL | –
– | – | GWALWEAKMKQLAERA | hit_pair_ratio [3]: 11.95
– | 3.37 | GWERVLGGLSSPLRLL | –
– | – | GYALWEAKMKQLAERA | hit_pair_ratio [3]: 276.75
– | 1.08 | GYERVLGGLSSPLRLL | –
– | – | HMERVLGGLSSPLRLL | hit_pair_ratio (wild-type/mutant pair ratio of averaged fractions, negative values where mutant fraction is higher): -2.43
– | 24.34 | IMERVLGGLSSPLRLL | –
– | – | KIAA1614_Q5VZ46_569_584 G7A (MERVLGALSSPLRLLP; UniProt Q5VZ46 569-584, looked up, variant G7A) | enrichment_relative_to_wt at position 7 (wt G): 1.68; proportion of amino acid at position 7 (wt G): 0.0259
– | – | KIAA1614_Q5VZ46_569_584 G7D (MERVLGDLSSPLRLLP; peptide 569-584; UniProt Q5VZ46 569-584, looked up, variant G7D) | enrichment_relative_to_wt at position 7 (wt G): 17; proportion of amino acid at position 7 (wt G): 0.26
